Results on three compounds are retold here after patent US20100068150A1, “Selective Caspase Inhibitors” (The Board of Trustees of the Leland Stanford Junior …, priority 2006, published 2010).

Experiment [1] has as its system endogenous caspases-3, 7, 9 and exogenous recombinant caspase-8 in 293 extracts. The experiment in a line: Labeling in 293 extracts with exogenous recombinant caspase-8 and cytochrome c/dATP. The class given is binding. Here is the method:
(a.) Hypotonic 293 cytosolic extracts were induced to undergo intrinsic apoptosis by addition of cytochrome c/dATP. […] Samples were analyzed by SDS-PAGE followed by biotin blotting using streptavidin-HRP. (b) The identity of individual caspases was confirmed via immunoprecipitation using specific anti-sera for caspases-3, 7 and 9 (also see FIG. 5B for immunoprecipitation of caspases-3 and 7 after KMB01 labeling). Extracts (293) were activated with cytochrome c/dATP for 10 minutes, labeled by addition of indicated probes (100 nM final concentration for bAB06 and bAB13 and 10 μM final concentration for KMB01) and labeled caspases precipitated using specific anti-sera as described in the Methods section. I is input, P is pellet, S is supernatant after specific precipitation. […] Labeling of caspases was monitored by SDS-PAGE followed by biotin blotting with streptavidin-HRP. […]
Selective labeling of endogenous caspases in cell extracts and live cells with active site probes was carried out as follows: Hypotonic 293 cytosolic extracts were induced to undergo intrinsic apoptosis by addition of cytochrome c/dATP. […] Samples were analyzed by SDS-PAGE followed by biotin blotting using streptavidin-HRP. […] Labeling of caspases was monitored by SDS-PAGE followed by biotin blotting with streptavidin-HRP. […]
Protein concentration of hypotonic extracts was measured using a standard Bradford Protein Assay (BioRad). […]

Another experiment has as its target T1, Caspase-9 (Homo sapiens, UniProt P55211).
T1 sequence (P55211 1-416): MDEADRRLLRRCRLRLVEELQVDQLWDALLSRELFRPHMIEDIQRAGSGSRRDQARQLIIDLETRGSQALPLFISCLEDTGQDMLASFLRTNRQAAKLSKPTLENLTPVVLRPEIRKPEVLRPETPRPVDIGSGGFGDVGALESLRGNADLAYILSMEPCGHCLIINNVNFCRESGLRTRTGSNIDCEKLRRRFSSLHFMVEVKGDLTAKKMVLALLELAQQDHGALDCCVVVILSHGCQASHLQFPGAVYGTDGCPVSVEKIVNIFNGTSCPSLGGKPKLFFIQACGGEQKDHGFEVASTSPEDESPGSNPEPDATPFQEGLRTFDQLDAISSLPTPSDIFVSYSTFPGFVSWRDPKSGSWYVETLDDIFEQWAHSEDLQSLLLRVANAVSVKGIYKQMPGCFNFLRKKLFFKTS
The experiment in a line: Kinetic compound screening, progress curve method, caspase-9. Conditions: NI = no inhibition at concentrations tested; for Ki(app) Caspase-9: Table III, Ki(app) = Kass or Kobs/I, 50 nM active caspase-9; for Caspase-9 Ki (app): Table IV. Type of experiment: biochemical. In short, it runs like this: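 Progress-curve method under pseudo-first-order kinetics, giving Ki(app) (kobs/I, M^−1s^−1), in caspase reaction buffer. Active enzyme at 5 nM (caspase-3, -7), 10 nM (caspase-8) or 50 nM (caspase-9), preactivated at 37 °C for 5, 10 or 40 min respectively. Some caspase-9 compounds also run with 1 M sodium citrate replacing sucrose.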

`Cc1cccc(C)c1C(=O)OCC(=O)[C@H](CC(=O)O)NC(=O)[C@@H](NC(=O)[C@H](Cc1ccncc1)NC(=O)[C@H](CC(=O)O)NC(=O)Cc1ccc(O)c([N+](=O)[O-])c1)C(C)C` [AB06, Np-D-3-V-D-DMBA]: the “inhibition of caspases in 293 extracts with added caspase-8” value in experiment [1] (AB06 10 μM added in conjunction with cytochrome c/dATP) was “caspases-3 and 7 were selectively inhibited”.
Regarding “Bio-EVD-AOMK [KMB01, reference compound]”, the “labeling of caspases in 293 extracts with added caspase-8” value in experiment [1] (recombinant caspase-8 100 nM, cytochrome c/dATP, probes 10 μM, 30 min) is “strong labeling of the endogenous caspases-3, 7, and 9 as well as the exogenously added caspase-8”. At Caspase-9, the “Ki(app) Caspase-9” value is given as 175,210 M^−1s^−1 and the “Caspase-9 Ki (app)” value was 210 M⁻¹ s⁻¹.
Turning to `Cc1cccc(C)c1C(=O)OCC(=O)[C@H](CC(=O)O)NC(=O)[C@@H](NC(=O)[C@H](CCC(=O)O)NC(=O)[C@H](CC(=O)O)NC(=O)Cc1ccc(O)c([N+](=O)[O-])c1)C(C)C` [AB09, Np-D-E- V-D-DMBA], on Caspase-9, the “Ki(app) Caspase-9” value is <5,000 M^−1s^−1 and the “Caspase-9 Ki (app)” value is given as <5,000 M-1s-1.
